Measurements published in PMC5663395, “Chemical Validation of Methionyl-tRNA Synthetase as a Druggable Target in Leishmania donovani” (ACS Infectious Diseases, 2017).
Read-outs that look alike come from different tables or passages of the source.

Legend:
[1] = tested on: protein synthesis in human HeLa cell extract; experiment: HeLa in vitro translation (GFP expression in cell extract); type: biochemical; conditions: 100 μM
Protocol: page 27: When test compounds were to be screened, the compound of interest (solubilised in 100% DMSO) was dispensed into assay plates using an Echo® 550 (Labcyte) before L. tarentolae extract and eGFP template DNA were added to assay wells as described above. The reaction was run at room temperature for 120 min before eGFP fluorescence intensity was measured. IC50 curve fitting was undertaken in GraFit version 6.0 (Erithacus Software) using a four-parameter logistic dose-response curve (equation 6), with s the slope. […] GFP expression was monitored over time using a BMG PheraStar plate reader (Excitation 485 nm; Emission 520 nm). When testing DDD806905 and the positive control compound cycloheximide, compounds (solubilised in 100% DMSO) were dispensed into assay plates using an Echo® 550 (Labcyte) before HeLa extract, accessory proteins, reaction mix and GFP template DNA were added to assay wells and GFP expression monitored as described above. Mitochondrial protein synthesis assay The effect of DDD806905 on mitochondrial protein synthesis was determined by BioDuro using the MitoBiogenesisTM In-Cell ELISA Kit (Abcam). […] In the assay the levels of SDH-A and COX-1 are measured in H9C2 cells. These are normalised to DMSO treated cells (vehicle) and then the ratio of normalised SDH-A over COX-1 is calculated. […]

[2] = Plasma protein binding, equilibrium dialysis, human plasma; type: in vitro ADME; conditions: read-out: fu (unbound fraction)
Protocol: which gave the best fit to the data was then recorded as the logP. Using the logP and an experimentally determined pKa (see above), the software generated a lipophilicity plot showing changes in the logD with increasing pH and from this plot a logD7.3 and logD5.6 values were recorded.
Plasma Protein Binding Determination
A 96-well equilibrium dialysis apparatus was used to determine the free fraction in plasma for DDD806905 (HT Dialysis LLC, Gales Ferry, CT). Membranes (12-14 kDA cut-off) were conditioned in deionised water for 60 minutes, followed by conditioning in 80:20 deionised water:ethanol for 20 minutes, and then rinsed in isotonic buffer before use. Female CD1 mouse plasma or human plasma was removed from the freezer and allowed to thaw on the day of experiment. Thawed plasma was then centrifuged (Allegra X12-R, Beckman Coulter, USA), spiked with test compound (final concentration 10 μg/ml), and 150 μL aliquots (n=6 replicate determinations) loaded into the 96-well equilibrium dialysis plate. […] All samples were analysed by UPLC-MS/MS on a Quattro Premier XE Mass Spectrometer (Waters Corporation, USA).
The unbound fraction (fu) was determined as the ratio of the peak area in buffer to that in plasma. […]

[3] = tested on: L. donovani axenic amastigotes; experiment: Leishmania axenic amastigote viability assay; type: cell-based, Leishmania donovani; conditions: Leishmania donovani
Protocol: carried out as described above using 5%, 10% and 20% FBS in the media. To examine the effect of the methionine concentration on the potency of DDD806905 parasites were grown in the presence of drug and in the presence (or absence) of 20-fold excess methionine (0.3 g/l). IC50 curve fitting was undertaken in GraFit version 6.0 (Erithacus Software) using a four-parameter logistic dose-response curve (equation 6), with s the slope.
Leishmania Axenic Amastigote Assay
The Leishmania axenic amastigote assay was performed using the method published in Nühs et al 15.
Leishmania Intracellular Amastigote Assay
The intramacrophage Leishmania assay was performed using a modified version of the method described in De Rycker et al 16. […]
amphotericin B was included. Controls were as follows: columns 11 and 12: DMSO, columns 23 and 24: amphotericin B (final concentration 2 µM). 350 nl of compound was pre-dispensed into 384-well sterile intermediary plates. To the intermediary plates, 35 µl of THP-1 media was added and plates were shaken for >5 min to ensure complete mixing. THP-1 cells (8,000 per well, 50 µl) were plated into black clear-bottom 384-well plates (Corning) in presence of 20 nM phorbol 12-myristate 13- […]
in a humidified incubator for 75 h. The cells were then washed with 450 µl sterile phosphate buffered saline (PBS) supplemented with 1 mM CaCl2, 0.5 mM MgCl2, 0.1% (w/v) bovine serum albumin (PBS-A) and amastigotes were added to all wells at a multiplicity of infection of 5 (40,000 amastigotes per well). After 40 min at room temperature, plates were returned to the incubator.
Amastigotes were incubated in the presence of THP-1 macrophages for 16 h. Any remaining extracellular amastigotes were subsequently removed by washing with PBS-A followed by addition of 25 µl of the compound pre-dilutions using an Ipette-pro pipetting station (FluidX). The final dilution of each compound was 200-fold. Plates were incubated for 96 h and then washed (250 µl PBS-A) and fixed (4 % (v/v) formaldehyde-PBS, 30 min, room temperature). After fixation, the wells were washed with 250 µl PBS, stained (10 µg/ml DAPI, 0.4 µg/mL HCS Cellmask Deep Red in PBS + 0.1% (v/v) Triton X-100, 30 min, room temperature) and washed with 250 µl PBS. Finally, PBS + 0.05% (v/v) thimerosal was added to the wells, the plates were sealed and imaged on a high-content microscope (GE IN Cell 2000) using a 10x objective. Image analysis was carried out with GE IN Cell Analyzer 1000 Workstation using the “Multi Target Analysis” module. For each well, i) THP-1 cell count (cytotoxicity readout) and ii) average number of amastigotes per cell (potency readout) were […]

Compound: Cl.Cl.O=c1nc(NCCCNCc2cc3c(Cl)cc(Cl)cc3[nH]2)[nH]c2ccccc12 [DDD806905, 2-((3-(((4,6-dichloro-1H-indol-2-yl)methyl)amino)propyl)amino)quinazolin-4(1H)-one dihydrochloride]
- inhibition of in vitro translation in HeLa cell extract [1]: no inhibition
- fraction unbound at 5 h, 10 μg/ml [2]: 0.007
- EC50 ([3]; Table 1, read-out: Leishmania Axenic Amastigote EC50): 14 µM
- EC50 ([3]; media pH 5.6, read-out: axenic amastigote EC50): 13.7 µM
